Data: patent US11612601B1, “Targeting epidermal growth factor to treat vascular calcification” (THE FLORIDA INTERNATIONAL UNIVERSITY BOARD OF TRUSTEES, priority 2022, dated 2023)

Assays:
[1] = test system: CKD mice; assay: Kidney renal fibrosis marker qRT-PCR and H&E histology in CKD mice; assay type: in vivo, mouse
Method: To assess histological changes in kidneys due to renal injury, Hematoxylin and Eosin (H&E) staining was performed. The kidneys resected from the mice were fixed using formalin (10%) for three hours. Tissues were embedded using Tissue-Plus OCT (Fisher Scientific, 23-730-571). The samples were cryosectioned with a thickness of 12 μm and stained using rapid chrome H&E staining kit (Thermo Scientific, 9990001).
To isolate RNA from the resected kidneys, the tissues were homogenized using a grinder (Sigma, Z529672) and lysed in 1 mL TRIzol solution. After 10 min incubation at room temperature, the samples were centrifuged at 12,000×g for 10 min at 4° C. The supernatants were collected and 200 μL of chloroform (Sigma Aldrich, C2432) were added to each sample. The samples were vortexed, incubated at room temperature for 10 min, and centrifuged for 15 min at 12,000×g, 4° C. The aqueous phase was collected from each sample and 500 μL of isopropanol was added; the samples were vortexed, incubated for 15 min at room temperature following by 15 min on ice, and centrifuged at 21,000×g for 15 min. The supernatants were discarded, and pellets were washed twice with 500 μL cold ethanol (75% v/v) and centrifuged at 21,000×g for 5 min. The isolated RNA templates were heated at 65° for 15 min, and the concentrations were measured using a spectrophotometer (NanoDrop Lite, Thermo scientific). Power SYBR Green RNA-to-CT 1-Step Kit with 100 ng isolated template RNA per reaction was used.
The following mouse primer sequences were purchased from Eurofins Scientific; Gapdh Forward: AACGACCCCTTCATTGAC (SEQ ID NO: 9) and Reverse: TCCACGACATACTCAGCAC (SEQ ID NO: 10); Colla1 Forward: […] (SEQ ID NO: 11) and Reverse: […] (SEQ ID NO: 12); Tgfb1 Forward: […] (SEQ ID NO: 13) and Reverse: CAGCAGCCGGTTACCAAG (SEQ ID NO: 14).

[2] = test system: CKD mice; assay: Aorta immunofluorescence and subcellular (cytosolic) fractionation in CKD mice; assay type: in vivo, mouse
Method: 8-week-old wild type C57BL/6J mice (n=20, female) received the adenine-supplemented diet for 6 weeks to induce CKD, followed by two additional weeks of the diet containing 1.8% phosphate and 0.2% adenine to induce medial calcinosis. Mice were split into two groups (10 per group). The first group received daily tyrphostin AG1478 (10 mg/kg mouse), while the other group received vehicle (1% w/v, carboxymethylcellulose sodium salt). At study endpoint, the animals were euthanized, and the aortas were resected.
A subcellular protein fractionation kit for tissue (Thermofisher, 87790) was used to isolate cellular cytosolic fraction from the resected aortas, using the manufacturer's protocol. Briefly, the tissues were minced and homogenized using a grinder. The samples were then incubated in a cytoplasmic extraction buffer for 10 min at 4° C., followed by centrifugation at 1000×g for 5 min. The supernatants yielded the cytosolic fraction. To obtain sufficient protein for analyses, two aortas were pooled per data point.
VSMCs, osteoblasts, isolated EVs (either from cells or mouse aortas), and matrix vesicles (from osteoblasts) were lysed in RIPA lysis and extraction buffer supplemented with protease inhibitor. After adding Laemmli SDS-sample buffer (1:4 v/v, Boston BioProducts, BP-110R) to each lysate, the samples were denatured at 100° C. for 10 min, loaded into 7.5-12% 1-mm SDS-PAGE gel (15 to 20 μg protein per lane), and run at 170 V. The proteins were then transferred to Trans-Blot turbo nitrocellulose membranes (BIO-RAD, 1704158) at 25 V for 7 min.
To quantify the total protein, the membranes were stained using 2% w/v Ponceau stain (Alfa Aesar, AAJ6074409) for 20 min, followed by one wash with 5% acetic acid and milliQ water for 5 min. After imaging, the intensity of each lane was measured in ImageJ for total protein normalization. Membranes were blocked with 5% w/v bovine serum albumin (HyClone, SH30574.01) in TBS-Tween (1×) for 1 hour. […] The protein bands were visualized with Odyssey CLx scanner (Li-Cor), and quantified using Image Studio Lite software (Li-Cor). […]

[3] = treated CKD animals compared to CKD group

COc1cc2ncnc(Nc3cccc(Cl)c3)c2cc1OC [AG1478, tyrphostin AG1478]
expression of common markers of renal injury ([1]; CKD mice): does not reduce
Gene expression of renal fibrosis marker Colla1 ([1]; kidney, CKD mice treated vs CKD, p=0.6): no significant differences
Gene expression of renal fibrosis marker Tgfb1 ([1]; kidney, CKD mice treated vs CKD, p=0.7): no significant differences
CAV1, EGFR, and TNAP immunofluorescence in the aorta ([2]; qualitative, CKD mice treated, compared to chow-fed controls): elevation of all three proteins
cytosolic CAV1 protein in aorta [2, 3]: higher
cytosolic TNAP protein in aorta [2, 3]: higher
